Measurements taken from ChEMBL document CHEMBL3525915, “Elucidation of a novel bioactivation pathway of a 3,4-unsubstituted isoxazole in human liver microsomes: formation of a glutathione adduct of a cyanoacrolein derivative after isoxazole ring opening” (Drug Metab Dispos, 2011).

Experiments:
[1] = system: Liver microsome; experiment: Drug metabolism in human liver microsomes assessed ratio of sum peak areas of metabolite M1 and M2 to peak area of internal standard at 20 uM in presence of NADPH and 1 mM 1-ABT at 37 degC incubated for 1 hr by liquid chromatography; format: ADME
[2] = system: Liver microsome; experiment: Drug metabolism in human liver microsomes assessed as metabolite formation at 20 uM (drug stock solution contained 1% acetonitrile) LC-MS/MS analysis in presence of NADPH and GSH; format: ADME
[3] = system: Liver microsome; experiment: Drug metabolism in human liver microsomes assessed metabolite formation at 20 uM in absence of NADPH at 37 degC incubated for 1 hr by liquid chromatography; format: ADME
[4] = system: Liver microsome; experiment: Drug metabolism in human liver microsomes assessed as (Z)-3-cyano-2-hydroxy-N-((2-isopropyl-7-methyl-1-oxoisoindolin-5-yl)methyl)acrylamide formation at 20 uM for 1 hr by LC-MS/MS analysis in presence of NADPH; format: ADME
[5] = system: Liver microsome; experiment: Retention time of the compound in human liver microsomes in presence of NADPH at 37 degC incubated for 1 hr by liquid chromatography; format: ADME
[6] = system: Liver microsome; experiment: Drug metabolism in human liver microsomes assessed ratio of sum peak areas of metabolite M1 and M2 to peak area of internal standard at 20 uM in presence of NADPH and in absence of 1 mM 1-ABT at 37 degC incubated for 1 hr by liquid chromatography; format: ADME
[7] = system: Liver microsome; experiment: Drug metabolism in human liver microsomes assessed as 2-amino-5-(1-(carboxymethylamino)-3-(3-cyano-5-((2-isopropyl-7-methyl-1-oxoisoindolin-5-yl)methylamino)-4,5-dioxopentan-2-ylthio)-1-oxopropan-2-ylamino)-5-oxopentanoic acid formation at 20 uM (drug stock solution contained ethanol) by LC-MS/MS analysis in presence of NADPH; format: ADME
[8] = Drug level in 0.1 N NaOH aqueous solution assessed as compound formation treated with 40 uM N-((2-isopropyl-7-methyl-1-oxoisoindolin-5-yl)methyl)isoxazole-5-carboxamide for 20 mins by LC-MS/MS analysis; format: physicochemical; details: buffer
[9] = system: Liver microsome; experiment: Drug level in human liver microsomes assessed as compound formation treated with 20 uM N-((2-isopropyl-7-methyl-1-oxoisoindolin-5-yl)methyl)isoxazole-5-carboxamide for 1 hr by LC-MS/MS analysis in presence of NADPH; format: ADME
[10] = system: Liver microsome; experiment: Drug level in human liver microsomes assessed as compound formation treated with 20 uM N-((2-isopropyl-7-methyl-1-oxoisoindolin-5-yl)methyl)isoxazole-5-carboxamide (drug stock solution contained 1% methanol) LC-MS/MS analysis in presence of NADPH and GSH; format: ADME
[11] = Drug level in 0.1 N NaOH aqueous solution assessed as compound formation treated with 40 uM N-((2-isopropyl-7-methyl-1-oxoisoindolin-5-yl)methyl)isoxazole-5-carboxamide for 20 mins at pH 7.5 by LC-MS/MS analysis in presence of formaldehyde and GSH; format: physicochemical; details: buffer, pH 7.5, 20 min
[12] = system: Liver microsome; experiment: Drug metabolism in human liver microsomes treated with 20 uM N-((2-isopropyl-7-methyl-1-oxoisoindolin-5-yl)methyl)isoxazole-5-carboxamide assessed compound formation in presence of NADPH using [13C]-labeled CH3OH drug stock solution at 37 degC incubated for 1 hr by liquid chromatography; format: ADME
[13] = system: Liver microsome; experiment: Drug level in human liver microsomes assessed as compound formation treated with 20 uM N-((2-isopropyl-7-methyl-1-oxoisoindolin-5-yl)methyl)isoxazole-5-carboxamide (drug stock solution contained 1% acetonitrile) LC-MS/MS analysis in presence of NADPH and GSH; format: ADME
[14] = system: Liver microsome; experiment: Drug level in human liver microsomes assessed as compound formation treated with 20 uM N-((2-isopropyl-7-methyl-1-oxoisoindolin-5-yl)methyl)isoxazole-5-carboxamide (drug stock solution contained 1% acetonitrile) LC-MS/MS analysis in presence of NADPH; format: ADME
[15] = system: Liver microsome; experiment: Drug level in human liver microsomes assessed as compound formation treated with 20 uM N-((2-isopropyl-7-methyl-1-oxoisoindolin-5-yl)methyl)isoxazole-5-carboxamide (drug stock solution contained 1% ethanol) LC-MS/MS analysis in presence of NADPH; format: ADME

Q: For `Cc1cc(CNC(=O)c2ccno2)cc2c1C(=O)N(C(C)C)C2`, which Ratio [1] is on record?
A: 0.128

Q: What about the Drug metabolism [2] of the same compound?
A: metabolite_not_detected

Q: And the Drug metabolism [3]?
A: metabolite_not_detected

Q: What about the Drug metabolism [4] of the same compound?
A: metabolite_detected

Q: And the Retention_time [5]?
A: 17.06 min

Q: What about the Ratio [6] of the same compound?
A: 1.22

Q: And the Drug metabolism [7]?
A: metabolite_detected

Q: With `Cc1cc(CNC(=O)/C(O)=C/C#N)cc2c1C(=O)N(C(C)C)C2` as the compound, how does the Drug metabolism [8] read?
A: metabolite_detected

Q: And the Drug metabolism [9]?
A: metabolite_detected

Q: What about the Retention_time [5] of the same compound?
A: 13.55 min

Q: What does the source list for `Cc1cc(CNC(=O)C(=O)C(C#N)CSC[C@H](NC(=O)CC[C@H](N)C(=O)O)C(=O)NCC(=O)O)cc2c1C(=O)N(C(C)C)C2` (some centres not stated)?
A: Drug metabolism [8]: metabolite_detected; Drug metabolism [10]: metabolite_detected; Drug metabolism [11]: metabolite_detected; Drug metabolism [12]: metabolite_detected; Drug metabolism [13]: metabolite_not_detected; Retention_time [5]: 9.72 min

Q: Which Retention_time [5] does the source give for `Cc1cc(CNC(=O)C(=O)C(C#N)C(C)SC[C@H](NC(=O)CC[C@H](N)C(=O)O)C(=O)NCC(=O)O)cc2c1C(=O)N(C(C)C)C2` (single isomer, unassigned; diastereomer 1) here?
A: 10.82 min

Q: With `Cc1cc(CNC(=O)C(=O)C(C#N)C(C)SC[C@H](NC(=O)CC[C@H](N)C(=O)O)C(=O)NCC(=O)O)cc2c1C(=O)N(C(C)C)C2` (single isomer, unassigned; diastereomer 2) as the compound, how does the Drug metabolism [14] read?
A: metabolite_not_detected

Q: And the Retention_time [5]?
A: 10.08 min

Q: And the Drug metabolism [15]?
A: metabolite_detected

Q: For `Cc1cc(CNC(=O)C(=O)CC#N)cc2c1C(=O)N(C(C)C)C2`, which Drug metabolism [8] is on record?
A: metabolite_detected

Q: And the Retention_time [5]?
A: 12.69 min
